{"source": "patent US10954549B2", "about": "“Detection and classification of an anticoagulant using a clotting assay” (Haemonetics Corporation, priority 2014, dated 2021)", "key": {"[1]": {"tested_on": "citrated whole blood", "assay": "RapidTEG (rTEG) test of blood spiked with anticoagulant", "format": "biochemical, human", "settings": "for TEG ACT parameter versus control group: all tested concentrations (except rivaroxaban 22 ng/mL)", "description": "(§1) The TEG clotting assay was used to determine if low, normal, and high doses of dabigatran, rivaroxaban, and apixaban could be detected in blood spiked with these compounds. Three oral anticoagulants (OAC), namely dabigatran, rivaroxaban, and apixaban, were spiked into blood obtained from 14 healthy volunteer human donors. For each OAC tested, citrated blood from three donors was spiked with three different concentrations of the active drug (i.e., the compound). The spiked blood samples and control samples spiked with diluent were tested with the TEG® 5000 Thrombelastograph® Hemostasis Analyzer (Haemonetics Corporation, Braintree, Mass., USA) using the Kaolin and RapidTEG® reagents (Haemonetics). Each sample was run in triplicate. All samples were tested with and without ecarin (purchased from Enzyme Research Laboratories, South Bend, IN). This study was IRB approved and all donors were over 18 and signed informed consent forms.\nThe RapidTEG (rTEG) test incorporated both tissue factor and kaolin to generate the conventional kaolin parameters as well as the TEG-ACT parameter, which is measured in seconds. The TEG-ACT is equivalent to the Activated Clotting Time (see Chavez J. J. et al., Anesth. Analg. 99:1290-1294, 2004) and has a normal range of 86 to 118 seconds. A prolonged TEG-ACT time indicates slower clot formation. In addition, velocity curves derived from the above mentioned kaolin and rTEG tests were plotted using TEG software. These curves represent the speed of clot propagation (MRTG, Maximum Rate of Thrombus Generation; and TMRTG, Time to Maximum Rate of Thrombus Generation) (see FIG. 3B).\nFor the RapidTEG (rTEG) test, the reagent was reconstituted with 20 μL diluent water, and allowed to stand for 5 minutes per manufacturer instructions. Ten μL of this reconstituted reagent was added to the TEG cup with 20 μl 0.2M CaCl2 for recalcification.\n(§2) 340 μL of the citrated blood sample was added to the cup with these two reagents, and the contents of the cup were mixed 3 times by drawing the contents of the cup up into the pipette and redispensing it into the cup. The test was started immediately after mixing and allowed to run until the MA parameter had defined. The rTEG with ecarin test was performed as the rTEG test above, using 20 μL of an ecarin/CaCl2 solution (0.16M CaCl2; 19EU/mL ecarin)."}, "[2]": {"tested_on": "citrated whole blood", "assay": "TEG kaolin with ecarin test of spiked blood", "format": "biochemical, human", "settings": "for R value with ecarin versus reference range: Example 2, three dosage levels, kaolin reference range about 5 to about 10 minutes; for R time in the presence versus absence of ecarin: FIGS. 8A-8C; for MA values with ecarin relative to samples run without ecarin: kaolin test; for R, K and TMRTG values on addition of ecarin to the kaolin test / α and MRTG values on addition of ecarin to the kaolin test: treated and control groups", "description": "as §1\nFor the kaolin test, 1 mL of citrated blood sample was mixed with kaolin and 340 microliters (μL) of this blood was added to a TEG cup containing 20 μL of 0.2M CaCl2 for recalcification. The kaolin with ecarin test was performed in a similar fashion, using 20 μL of an ecarin/CaCl2 solution (0.16 M CaCl2; 19 EU/mL ecarin).\nEcarin is derived from the venom of the saw-scaled viper, Echis carinatus. Ecarin activates prothrombin (the precursor of thrombin—see FIG. 5). This activation of prothrombin by ecarin produces meizothrombin, a prothrombin-thrombin intermediate which has a low level of procoagulant enzymatic activity.\nHealthy human volunteers (who are not being administered any anticoagulant), donated blood. Following donation, the blood collected from the donors (which was added to citrate to prevent clotting) was divided into portions, and portions of the blood were spiked with either nothing, dabigatran, or rivaroxaban. The portions were then assayed using thromboelastography, including assays performed in the presence of ecarin."}, "[3]": {"tested_on": "citrated whole blood", "assay": "rTEG with ecarin test of spiked blood", "format": "biochemical, human", "description": "as §1, §2"}, "[4]": {"tested_on": "blood from healthy volunteers", "assay": "Thromboelastography R time of spiked blood in the presence of the FXa reagent", "format": "biochemical, human", "settings": "in vitro spiking, increasing concentrations", "protocol": "Blood from healthy volunteers known not to be taking any oral anticoagulant and without any other significant health issues are analyzed using the FXa or the Ecarin reagent in a TEG® hemostasis analyzer. The FXa reagent (i.e., the Factor Xa reagent) is used to detect the presence (or absence) of an anticoagulant in the blood component being tested. In absence of any oral anticoagulant, the FXa reagent will accelerate the clotting process and result in a very short R-time. In presence of direct thrombin inhibitors and/or anti-Factor Xa anticoagulant(s), the process is slowed down and will cause elongation of the R-time. This difference in R-time is utilized to detect the presence of the oral anticoagulant. The R-time generated from multiple donors was used to construct a reference range. Blood was spiked with either direct thrombin inhibitors or anti-Xa(s) at different concentrations and analyzed using the FXa reagent or the Ecarin reagent. The drug concentrations chosen represent the published therapeutic ranges for these two classes of drugs. This assay was repeated in multiple donors to account for possible donor variations."}, "[5]": {"tested_on": "blood from healthy volunteers", "assay": "Thromboelastography R time of spiked blood in the presence of the ecarin reagent", "format": "biochemical, human", "protocol": "Blood from healthy volunteers known not to be taking any oral anticoagulant and without any other significant health issues are analyzed using the FXa or the Ecarin reagent in a TEG® hemostasis analyzer.\nThe ecarin reagent is used to classify the type of anticoagulant. The R-time from the Ecarin assay is used to differentiate between the two available classes (Direct thrombin inhibitors and anti-Xa inhibitors). This ecarin reagent may be used in combination with the results from the FXa reagent to make a decision. A reference range will be generated from a sample healthy volunteer population (not on any drug) for this reagent.\nThe R-time generated from multiple donors was used to construct a reference range. Blood was spiked with either direct thrombin inhibitors or anti-Xa(s) at different concentrations and analyzed using the FXa reagent or the Ecarin reagent. The drug concentrations chosen represent the published therapeutic ranges for these two classes of drugs. This assay was repeated in multiple donors to account for possible donor variations.\nThe R time (in minutes) was compared to the R time obtained from donor blood with no oral anticoagulant (who is known not to be administered with an anticoagulant) treated with the ecarin reagent and measured using thromboelastography.\nThe R time (in minutes) was compared to the R time obtained from donor blood with no oral anticoagulant (i.e., taken from a patient who is known not to be administered with an anticoagulant) treated with the ecarin reagent and measured using thromboelastography."}, "[6]": {"settings": "cited from earlier work"}}}
{"compound": "dabigatran", "values": [{"measurement": "TEG ACT parameter, distinguishing between concentrations", "setting": "[1]", "value": "good dose response curve"}, {"measurement": "TMRTG parameter sensitivity to presence of drug", "setting": "[1]", "value": "sensitive to the presence"}, {"measurement": "K parameter versus control", "setting": "[1]; 200 ng/mL and 50 ng/mL", "value": "statistically different from control"}, {"measurement": "K parameter versus control", "setting": "[1]; 500 ng/mL", "value": "not for the concentration of 500 ng/mL"}, {"measurement": "α parameter versus control", "setting": "[1]; 500 ng/mL and 50 ng/mL", "value": "statistically different from control"}, {"measurement": "MA values versus control group", "setting": "[1]; 500 ng/mL, still within normal range", "value": "significantly different from the control group"}, {"measurement": "MRTG parameter sensitivity", "setting": "[1]; 500, 200, 50 ng/mL", "value": "sensitive to the two lowest concentrations"}, {"measurement": "TMRTG parameter between concentrations", "setting": "[1]; 500 vs 200 ng/mL, 200 vs 50 ng/mL", "value": "able to differentiate between concentrations"}, {"measurement": "K and α parameters, highest concentration versus other concentrations", "setting": "[1]; 500 vs 200 ng/mL, 500 vs 50 ng/mL", "value": "able to differentiate"}, {"measurement": "ACT time versus non-spiked blood sample", "setting": "[1]; all concentrations", "value": "significantly higher"}, {"measurement": "TEG ACT parameter versus control group", "setting": "[1]", "value": "significantly different"}, {"measurement": "R, kaolin test with ecarin", "setting": "[2]; 500, 200, 50 ng/mL", "value": "only a dose related decrease of the R"}, {"measurement": "R value with ecarin versus reference range", "setting": "[2]", "value": "shortened and approaches the normal reference range"}, {"measurement": "R time in the presence versus absence of ecarin", "setting": "[2]", "value": "concentration dependent decrease in R time"}, {"measurement": "MA values with ecarin relative to samples run without ecarin", "setting": "[2]", "value": "did not change"}, {"measurement": "R, K and TMRTG values on addition of ecarin to the kaolin test", "setting": "[2]", "value": "significant decrease"}, {"measurement": "α and MRTG values on addition of ecarin to the kaolin test", "setting": "[2]", "value": "significant increase"}, {"measurement": "TEG-ACT times on addition of ecarin to the RapidTEG test", "setting": "[3]", "value": "significantly decreases"}, {"measurement": "TMRTG times on addition of ecarin to the RapidTEG test", "setting": "[3]", "value": "significantly decreases"}, {"measurement": "MA value on addition of ecarin to the RapidTEG test", "setting": "[3]; 200 ng/mL, still within normal range", "value": "significantly decreased"}, {"measurement": "RapidTEG α angle when ecarin was added", "setting": "[3]; lowest concentrations (200 ng/mL, 50 ng/mL)", "value": "decrease of the angle value"}, {"measurement": "RapidTEG K values when ecarin was added", "setting": "[3]; middle concentration (200 ng/mL)", "value": "increased"}, {"measurement": "R-time compared to the reference range, FXa reagent", "setting": "[4]", "value": "dose dependent elongation of the R-time"}, {"measurement": "R time versus untreated R time of unspiked donor blood", "setting": "[5]; 50 ng/ml, donor 126, ecarin reagent", "value": "two times longer"}, {"measurement": "R time relative to the reference range of 3.1 minutes", "setting": "[5]; 50 ng/ml, donors 117, 127, and 146, ecarin", "value": "at least 1.25 times"}, {"measurement": "R time relative to the collective reference range of 3.1 minutes", "setting": "[5]; 150 ng/ml, all four donors, ecarin", "value": "at least 1.25 times"}, {"measurement": "maximum plasma concentration", "setting": "[6]; 150 mg oral dose", "value": 110, "unit": "ng/mL"}, {"measurement": "half-life", "setting": "[6]; lengthened in patients with renal dysfunction", "value": "12 to 17", "unit": "h"}]}
{"compound": "O=C(NC[C@H]1CN(c2ccc(N3CCOCC3=O)cc2)C(=O)O1)c1ccc(Cl)s1", "note": "[rivaroxaban, Rivaroxaban]", "values": [{"measurement": "K, α and MRTG parameters versus control or between studied concentrations", "setting": "[1]", "value": "did not show any statistical difference"}, {"measurement": "TEG ACT parameter, distinguishing between concentrations", "setting": "[1]", "value": "good dose response curve"}, {"measurement": "TMRTG parameter sensitivity to presence of drug", "setting": "[1]", "value": "sensitive to the presence"}, {"measurement": "MA values versus control", "setting": "[1]; all studied concentrations", "value": "did not change"}, {"measurement": "TEG ACT parameter versus control group", "setting": "[1]", "value": "significantly different"}, {"measurement": "ACT time versus non-spiked blood sample", "setting": "[1]; medium and higher concentrations", "value": "significantly higher"}, {"measurement": "R value with ecarin versus reference range", "setting": "[2]", "value": "dramatically shortened and all three dosage levels fall outside of the control reference range"}, {"measurement": "R time in the presence versus absence of ecarin", "setting": "[2]", "value": "equivalent and significant shortening of R time"}, {"measurement": "MA values with ecarin relative to samples run without ecarin", "setting": "[2]", "value": "did not change"}, {"measurement": "R, K and TMRTG values on addition of ecarin to the kaolin test", "setting": "[2]", "value": "significant decrease"}, {"measurement": "α and MRTG values on addition of ecarin to the kaolin test", "setting": "[2]", "value": "significant increase"}, {"measurement": "TEG-ACT times on addition of ecarin to the RapidTEG test", "setting": "[3]", "value": "significantly decreases"}, {"measurement": "TMRTG times on addition of ecarin to the RapidTEG test", "setting": "[3]", "value": "significantly decreases"}, {"measurement": "RapidTEG α angle when ecarin was added", "setting": "[3]; any of the studied concentrations", "value": "did not change"}, {"measurement": "RapidTEG K values when ecarin was added", "setting": "[3]; middle concentration (89 ng/mL)", "value": "significantly decreased"}, {"measurement": "R-time compared to the reference range, FXa reagent", "setting": "[4]", "value": "dose dependent elongation of the R-time"}, {"measurement": "R time versus reference range of approximately 1 to 4.1 minutes", "setting": "[5]; 50-350 ng/ml, ecarin", "value": "within the reference range"}, {"measurement": "half-lives compared", "setting": "[6]; in vivo", "value": "shorter half-lives than dabigatran"}, {"measurement": "Cmax", "setting": "[6]; oral dose of 10 mg", "value": 141, "unit": "ng/mL"}]}
